These results are taken from US10668028B2, “Methods and use of inducing apoptosis in cancer cells” (Berg LLC, priority 2008, dated 2020).

One test relates to human melanoma tumors. Nature of the test: histopathology analysis of human melanoma (Skmel-28) tumors induced in nude athymic mice. It counts as in vivo. To be noted: topical application for 30 days, H & E or S-100 stain. Here is the method:
Skmel-28 cells were grown in 5% serum supplemented DMEM/F12 medium to 80% confluency. The cells were trypsinized and pelleted using a centrifuge. The pellets were then resuspended in cold PBS. The subjects for this study were nude athymia mice. Each subject received two injections of the cell suspension on the dorsal region of the mouse. After a visual assessment of the establishment of a tumor, treatment with a topical application would commence. After 30 days of treatment, the tumors were excised from the mice and placed in formalin. Each tumor sample was embedded in paraffin and sliced using a microtome. The slides underwent an H & E or S-100 stain. These samples were than analyzed by a pathologist to assess the vascular integrity of the tumor.

The subject of another test is Bcl-2 protein. The note with it: melanoma; cited from earlier work.

Turning to `COC1=C(OC)C(=O)C(C/C=C(\C)CC/C=C(\C)CC/C=C(\C)CC/C=C(\C)CC/C=C(\C)CC/C=C(\C)CC/C=C(\C)CC/C=C(\C)CC/C=C(\C)CCC=C(C)C)=C(C)C1=O` [CoQ10, 2,3-dimethoxy-5-methyl-6-decaprenyl-1,4-benzoquinone], the “tumor pathology / vascular integrity of the tumor” value with human melanoma tumors is reported as “disruption in tumor vasculature”. In the test on Bcl-2 protein, the Bcl-2 protein level entry was “downregulation of the Bcl-2 protein”.
